From US20210115104A1, “AMYLIN ANALOGUES” (Zealand Pharma A/S, priority 2015, published 2021)
*1 amine or outer side, *2 acyl side, *3 side chain or, on linkers, in order; H or OH if unused. Where a SMILES comes first, the peptide text is derived from it. Bridges are numbered along the chain shown (N, C = ends). [ ]: non-standard residue; d: D form. The star is where a group is joined. C20 diacid = O=C(O)CCCCCCCCCCCCCCCCCCC(=O)*; γGlu = O=C(O)[C@H](CCC(=O)[*:2])N[*:1]; Hyp = O=C(O)[C@@H]1C[C@@H](O)CN1; NMeI = CC[C@H](C)[C@H](NC)C(=O)O; Aad = N[C@@H](CCCC(=O)O)C(=O)O; Orn = NCCC[C@H](N)C(=O)O; Sar = CNCC(=O)O

Legend:
[1] = molecular target: T1, human amylin receptor 3 (hAMYR3), hCTR2 co-expressed with hRAMP3 (Homo sapiens, UniProt O60896+P30988); test: hAMYR3 cAMP assay (AlphaScreen) in COS7 cells; format: cell-based; conditions: cAMP induction, COS7 cells expressing hAMYR3; Table 1; read-out: hAMYR3 EC50
T1 construct: expressed in transfected cells
T1 sequence (P30988 25-474): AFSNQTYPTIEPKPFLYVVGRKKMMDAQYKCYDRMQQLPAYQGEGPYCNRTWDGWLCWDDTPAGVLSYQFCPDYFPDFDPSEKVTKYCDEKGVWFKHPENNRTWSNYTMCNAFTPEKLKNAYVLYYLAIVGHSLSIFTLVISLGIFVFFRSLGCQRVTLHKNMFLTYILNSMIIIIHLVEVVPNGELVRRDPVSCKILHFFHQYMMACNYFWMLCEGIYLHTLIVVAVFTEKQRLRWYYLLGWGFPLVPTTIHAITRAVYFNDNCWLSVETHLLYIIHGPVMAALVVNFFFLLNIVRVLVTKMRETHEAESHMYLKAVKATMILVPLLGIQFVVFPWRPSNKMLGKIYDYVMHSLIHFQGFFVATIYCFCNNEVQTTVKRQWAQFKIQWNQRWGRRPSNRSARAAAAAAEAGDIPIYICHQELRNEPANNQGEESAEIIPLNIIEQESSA
T1 sequence (O60896 24-148 partner): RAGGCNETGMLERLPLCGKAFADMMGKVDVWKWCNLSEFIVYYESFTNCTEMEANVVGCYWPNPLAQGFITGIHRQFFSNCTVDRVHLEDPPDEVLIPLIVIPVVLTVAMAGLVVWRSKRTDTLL
In short: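 EC50 values derive from 4PL curve fits of cAMP (AlphaScreen) in lysates of RAMP-naive COS7 cells stably carrying hCTR2 plus hRAMP3. Peptide dilution series were applied for 15 min at 37 °C in pH 7.4 Tyrode buffer containing 100 µM IBMX and 0.1% casein.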

[2] = molecular target: T2, human calcitonin receptor (hCTR2) (Homo sapiens, UniProt P30988); test: hCTR2 cAMP assay (AlphaScreen) in COS7 cells; format: cell-based; conditions: cAMP induction, COS7 cells expressing hCTR2; Table 1; read-out: hCTR2 EC50
T2 construct: expressed in transfected cells
T2 sequence (P30988 25-474): T1 sequence (P30988 25-474)
In short: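 cAMP induction, read by AlphaScreen after lysis, gives EC50 values via 4PL curve fitting. Peptides were applied at rising concentrations for 15 min at 37 °C, with IBMX and 0.1% casein in HEPES-buffered Tyrode pH 7.4, to COS7 cells (no endogenous RAMPs) stably expressing human CTR2.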

SMILES	EC50 [1]	EC50 [2]
CC[C@H](C)[C@@H](C(=O)N[C@@H](CC(C)C)C(=O)N[C@@H](CO)C(=O)N[C@@H](CO)C(=O)N[C@H](C(=O)N[C@@H](CCC(=O)O)C(=O)N[C@H](C(=O)NCC(=O)N[C@@H](CO)C(=O)N[C@@H](CCCN)C(=O)N[C@H](C(=O)N1C[C@H](O)C[C@H]1C(N)=O)[C@@H](C)O)C(C)C)[C@@H](C)O)N(C)C(=O)[C@H](C)NC(=O)CN(C)C(=O)[C@H](Cc1ccccc1)NC(=O)[C@H](CO)NC(=O)[C@H](CO)NC(=O)[C@H](CCCNC(=N)N)NC(=O)[C@@H](NC(=O)[C@H](CC(C)C)NC(=O)[C@H](Cc1ccccc1)NC(=O)[C@H](CCCC(=O)O)NC(=O)[C@H](C)NC(=O)[C@H](CC(C)C)NC(=O)[C@H](CCCNC(=N)N)NC(=O)[C@H](CCC(=O)O)NC(=O)[C@@H](NC(=O)[C@H](C)NC(=O)[C@@H]1CSSC[C@H](NC(=O)[C@H](CCCNC(=N)N)NC(=O)CC[C@H](NC(=O)CCCCCCCCCCCCCCCCCCC(=O)O)C(=O)O)C(=O)NCC(=O)N[C@@H]([C@@H](C)O)C(=O)N[C@@H](C)C(=O)N[C@@H]([C@@H](C)O)C(=O)N1)[C@@H](C)O)[C@@H](C)O [Compound 44, [19CD]-isoGlu-R-C( )-GTAT-C( )-ATERLA-Aad-FLTRSSF-Gly(Me)-A-Ile(Me)-LSSTEVGS-Orn-T-Hyp-NH2] ({C20 diacid-γGlu}-RCGTATCATERLA[Aad]FLTRSSF[Sar]A[NMeI]LSSTEVGS[Orn]T[Hyp]-NH2; disulfide 2-7)	300 pM	200 pM
CC[C@H](C)[C@@H](C(=O)N[C@@H](CC(C)C)C(=O)N[C@@H](CO)C(=O)N[C@@H](CO)C(=O)N[C@H](C(=O)N[C@@H](CCC(=O)O)C(=O)N[C@H](C(=O)NCC(=O)N[C@@H](CO)C(=O)N[C@@H](CO)C(=O)N[C@H](C(=O)N1CCC[C@H]1C(N)=O)[C@@H](C)O)C(C)C)[C@@H](C)O)N(C)C(=O)[C@H](C)NC(=O)CN(C)C(=O)[C@H](Cc1ccccc1)NC(=O)[C@H](CO)NC(=O)[C@H](CO)NC(=O)[C@H](CCCNC(=N)N)NC(=O)[C@@H](NC(=O)[C@H](CC(C)C)NC(=O)[C@H](Cc1ccccc1)NC(=O)[C@H](Cc1c[nH]cn1)NC(=O)[C@H](C)NC(=O)[C@H](CC(C)C)NC(=O)[C@H](CCCNC(=N)N)NC(=O)[C@H](CCC(=O)O)NC(=O)[C@@H](NC(=O)[C@H](C)NC(=O)[C@@H]1CSSC[C@H](NC(=O)[C@H](CCCNC(=N)N)NC(=O)CC[C@H](NC(=O)CCCCCCCCCCCCCCCCCCC(=O)O)C(=O)O)C(=O)NCC(=O)N[C@@H]([C@@H](C)O)C(=O)N[C@@H](C)C(=O)N[C@@H]([C@@H](C)O)C(=O)N1)[C@@H](C)O)[C@@H](C)O [Compound 46, [19CD]-isoGlu-R-C( )-GTAT-C( )-ATERLAHFLTRSSF-Gly(Me)-A-Ile(Me)-LSSTEVGSSTP-NH2] ({C20 diacid-γGlu}-RCGTATCATERLAHFLTRSSF[Sar]A[NMeI]LSSTEVGSSTP-NH2; disulfide 2-7)	140 pM	100 pM
CC[C@H](C)[C@@H](C(=O)N[C@@H](CC(C)C)C(=O)N[C@@H](CO)C(=O)N[C@@H](CO)C(=O)N[C@H](C(=O)N[C@@H](CCC(=O)O)C(=O)N[C@H](C(=O)NCC(=O)N[C@@H](CO)C(=O)N[C@@H](CCCN)C(=O)N[C@H](C(=O)N1CCC[C@H]1C(N)=O)[C@@H](C)O)C(C)C)[C@@H](C)O)N(C)C(=O)[C@H](C)NC(=O)CN(C)C(=O)[C@H](Cc1ccccc1)NC(=O)[C@H](CO)NC(=O)[C@H](CO)NC(=O)[C@H](CCCNC(=N)N)NC(=O)[C@@H](NC(=O)[C@H](CC(C)C)NC(=O)[C@H](Cc1ccccc1)NC(=O)[C@H](Cc1c[nH]cn1)NC(=O)[C@H](C)NC(=O)[C@H](CC(C)C)NC(=O)[C@H](CCCNC(=N)N)NC(=O)[C@H](CCC(=O)O)NC(=O)[C@@H](NC(=O)[C@H](C)NC(=O)[C@@H]1CSSC[C@H](NC(=O)[C@H](CCCNC(=N)N)NC(=O)CC[C@H](NC(=O)CCCCCCCCCCCCCCCCCCC(=O)O)C(=O)O)C(=O)NCC(=O)N[C@@H]([C@@H](C)O)C(=O)N[C@@H](C)C(=O)N[C@@H]([C@@H](C)O)C(=O)N1)[C@@H](C)O)[C@@H](C)O [Compound 47, [19CD]-isoGlu-R-C( )-GTAT-C( )-ATERLAHFLTRSSF-Gly(Me)-A-Ile(Me)-LSSTEVGS-Orn-TP-NH2] ({C20 diacid-γGlu}-RCGTATCATERLAHFLTRSSF[Sar]A[NMeI]LSSTEVGS[Orn]TP-NH2; disulfide 2-7)	190 pM	100 pM
CC[C@H](C)[C@@H](C(=O)N[C@@H](CC(C)C)C(=O)N[C@@H](CO)C(=O)N[C@@H](CO)C(=O)N[C@H](C(=O)N[C@@H](CCC(=O)O)C(=O)N[C@H](C(=O)NCC(=O)N[C@@H](CO)C(=O)N[C@@H](CC(N)=O)C(=O)N[C@H](C(=O)N1C[C@H](O)C[C@H]1C(N)=O)[C@@H](C)O)C(C)C)[C@@H](C)O)N(C)C(=O)[C@H](C)NC(=O)CN(C)C(=O)[C@H](Cc1ccccc1)NC(=O)[C@H](CO)NC(=O)[C@H](CO)NC(=O)[C@H](CCCNC(=N)N)NC(=O)[C@H](CCCC(=O)O)NC(=O)[C@H](CC(C)C)NC(=O)[C@H](Cc1ccccc1)NC(=O)[C@H](Cc1c[nH]cn1)NC(=O)[C@H](C)NC(=O)[C@H](CC(C)C)NC(=O)[C@H](CCCNC(=N)N)NC(=O)[C@H](CCC(N)=O)NC(=O)[C@@H](NC(=O)[C@H](C)NC(=O)[C@@H]1CSSC[C@H](NC(=O)[C@H](CCCNC(=N)N)NC(=O)CC[C@H](NC(=O)CCCCCCCCCCCCCCCCCCC(=O)O)C(=O)O)C(=O)N[C@@H](CC(N)=O)C(=O)N[C@@H]([C@@H](C)O)C(=O)N[C@@H](C)C(=O)N[C@@H]([C@@H](C)O)C(=O)N1)[C@@H](C)O [Compound 50, [19CD]-isoGlu-R-C( )-NTAT-C( )-ATQRLAHFL-Aad-RSSF-Gly(Me)-A-Ile(Me)-LSSTEVGSNT-Hyp-NH2] ({C20 diacid-γGlu}-RCNTATCATQRLAHFL[Aad]RSSF[Sar]A[NMeI]LSSTEVGSNT[Hyp]-NH2; disulfide 2-7)	190 pM	120 pM
CC[C@H](C)[C@@H](C(=O)N[C@@H](CC(C)C)C(=O)N[C@@H](CO)C(=O)N[C@@H](CO)C(=O)N[C@H](C(=O)N[C@@H](CCC(=O)O)C(=O)N[C@H](C(=O)NCC(=O)N[C@@H](CO)C(=O)N[C@@H](CC(N)=O)C(=O)N[C@H](C(=O)N1CCC[C@H]1C(N)=O)[C@@H](C)O)C(C)C)[C@@H](C)O)N(C)C(=O)[C@H](C)NC(=O)CN(C)C(=O)[C@H](Cc1ccccc1)NC(=O)[C@H](CO)NC(=O)[C@H](CO)NC(=O)[C@H](CCCNC(=N)N)NC(=O)[C@H](CCC(N)=O)NC(=O)[C@H](CC(C)C)NC(=O)[C@H](Cc1ccccc1)NC(=O)[C@H](Cc1c[nH]cn1)NC(=O)[C@H](C)NC(=O)[C@H](CC(C)C)NC(=O)[C@H](CCCNC(=N)N)NC(=O)[C@H](CCC(=O)O)NC(=O)[C@@H](NC(=O)[C@H](C)NC(=O)[C@@H]1CSSC[C@H](NC(=O)[C@H](CCCNC(=N)N)NC(=O)CC[C@H](NC(=O)CCCCCCCCCCCCCCCCCCC(=O)O)C(=O)O)C(=O)N[C@@H](CC(N)=O)C(=O)N[C@@H]([C@@H](C)O)C(=O)N[C@@H](C)C(=O)N[C@@H]([C@@H](C)O)C(=O)N1)[C@@H](C)O [Compound 62, [19CD]-isoGlu-R-C( )-NTAT-C( )-ATERLAHFLQRSSF-Gly(Me)-A-Ile(Me)-LSSTEVGSNTP-NH2] ({C20 diacid-γGlu}-RCNTATCATERLAHFLQRSSF[Sar]A[NMeI]LSSTEVGSNTP-NH2; disulfide 2-7)	220 pM	180 pM
CC[C@H](C)[C@@H](C(=O)N[C@@H](CC(C)C)C(=O)N[C@@H](CO)C(=O)N[C@@H](CO)C(=O)N[C@H](C(=O)N[C@@H](CCC(=O)O)C(=O)N[C@H](C(=O)NCC(=O)N[C@@H](CO)C(=O)N[C@@H](CC(N)=O)C(=O)N[C@H](C(=O)N1C[C@H](O)C[C@H]1C(N)=O)[C@@H](C)O)C(C)C)[C@@H](C)O)N(C)C(=O)[C@H](C)NC(=O)CN(C)C(=O)[C@H](Cc1ccccc1)NC(=O)[C@H](CO)NC(=O)[C@H](CO)NC(=O)[C@H](CCCNC(=N)N)NC(=O)[C@H](CCC(N)=O)NC(=O)[C@H](CC(C)C)NC(=O)[C@H](Cc1ccccc1)NC(=O)[C@H](Cc1c[nH]cn1)NC(=O)[C@H](C)NC(=O)[C@H](CC(C)C)NC(=O)[C@H](CCCNC(=N)N)NC(=O)[C@H](CCC(N)=O)NC(=O)[C@@H](NC(=O)[C@H](C)NC(=O)[C@@H]1CSSC[C@H](NC(=O)[C@H](CCCNC(=N)N)NC(=O)CC[C@H](NC(=O)CCCCCCCCCCCCCCCCCCC(=O)O)C(=O)O)C(=O)N2CCC[C@H]2C(=O)N[C@@H]([C@@H](C)O)C(=O)N[C@@H](C)C(=O)N[C@@H]([C@@H](C)O)C(=O)N1)[C@@H](C)O [Compound 64, [19CD]-isoGlu-R-C( )-PTAT-C( )-ATQRLAHFLQRSSF-Gly(Me)-A-Ile(Me)-LSSTEVGSNT-Hyp-NH2] ({C20 diacid-γGlu}-RCPTATCATQRLAHFLQRSSF[Sar]A[NMeI]LSSTEVGSNT[Hyp]-NH2; disulfide 2-7)	150 pM	110 pM
